Source: ChEMBL document CHEMBL1148943, “Estrogenic and anticarcinogenic properties of kurarinone, a lavandulyl flavanone from the roots of Sophora flavescens” (J Nat Prod, 2004)

Tests used:
[1] = Cytotoxicity against human MCF7/6 cells at 40 uM after 72 hrs by SRB assay; format: functional; details: MCF7/6, 72 h
[2] = Cytotoxicity against human MCF7/6 cells at 80 uM after 72 hrs by SRB assay; format: functional; details: MCF7/6, 72 h
[3] = target: T1, Estrogen receptor (Homo sapiens, UniProt P03372); experiment: Estrogenic activity at estrogen receptor in human Ishikawa Var-1 cells assessed as stimulation of alkaline phosphatase activity measured by metabolism of p-nitrophenol phosphatase after 72 hrs; format: cell-based
T1 sequence (P03372 whole entry): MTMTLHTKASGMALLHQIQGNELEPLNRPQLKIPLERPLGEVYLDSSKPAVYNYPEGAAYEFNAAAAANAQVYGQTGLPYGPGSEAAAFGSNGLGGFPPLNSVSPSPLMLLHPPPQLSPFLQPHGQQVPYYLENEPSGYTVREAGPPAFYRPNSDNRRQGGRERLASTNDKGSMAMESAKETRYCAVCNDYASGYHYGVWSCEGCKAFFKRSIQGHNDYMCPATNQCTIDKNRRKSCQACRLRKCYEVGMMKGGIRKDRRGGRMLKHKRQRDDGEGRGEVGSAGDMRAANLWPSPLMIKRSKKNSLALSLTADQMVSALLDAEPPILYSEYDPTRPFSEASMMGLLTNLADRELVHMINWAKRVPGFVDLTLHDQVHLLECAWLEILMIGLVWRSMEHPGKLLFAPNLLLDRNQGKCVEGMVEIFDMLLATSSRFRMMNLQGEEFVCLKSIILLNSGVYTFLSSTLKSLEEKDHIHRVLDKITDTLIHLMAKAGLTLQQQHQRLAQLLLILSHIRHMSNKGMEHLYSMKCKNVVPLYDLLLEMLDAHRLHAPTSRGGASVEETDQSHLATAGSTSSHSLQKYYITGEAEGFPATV

[4] = target: T1, Estrogen receptor; experiment: Estrogenic activity at human estrogen receptor expressing Saccharomyces cerevisiae carrying estrogen responsive sequence containing plasmid assessed as metabolism of chlorophenol res beta-D-galactopyranoside
[5] = Cytotoxicity against human MCF7/6 cells after 72 hrs by SRB assay; format: functional, cell-based; details: MCF7/6, 72 h

C=C(C)C(CC=C(C)C)Cc1c(O)cc(OC)c2c1O[C@H](c1ccc(O)cc1O)CC2=O (stereo not given in full) [KURARINONE]
inhibition at 40 µM [1]: 60%
inhibition at 80 µM [2]: > 80%
EC50 [3]: 1.66 µM
EC50 [4]: 4.6 µM
IC50 [5]: 22.2 µM
